20 compounds from ChEMBL document CHEMBL1133893, “Design and synthesis of a highly selective EP4-receptor agonist. Part 1: 3,7-dithiaPG derivatives with high selectivity” (Bioorg Med Chem Lett, 2001) can be followed below.

pEC50, pKi: −log10 of the molar value.

In assay [1] the target is T1, Prostaglandin E2 receptor EP4 subtype (Mus musculus, UniProt P32240). As to the kind of experiment: Evaluated for its competitive binding affinity towards mouse Prostanoid EP4 receptor in CHO cells expressing prostanoid receptor. The format is cell-based.
For assay [2], the target named is Prostaglandin E2 receptor EP2 subtype (Mus musculus, UniProt Q62053). Kind of assay: Evaluated for its competitive binding affinity towards mouse Prostanoid EP2 receptor in CHO cells expressing prostanoid receptor. The format is cell-based.
The target of assay [3] is Prostacyclin receptor (Homo sapiens, UniProt P43119). Kind of assay: Evaluated for its competitive binding affinity towards human Prostanoid IP receptor in CHO cells. The format is cell-based.
In assay [4] the target is T2, Prostaglandin E2 receptor EP1 subtype (Mus musculus, UniProt P35375).
T2 sequence (P35375 whole entry): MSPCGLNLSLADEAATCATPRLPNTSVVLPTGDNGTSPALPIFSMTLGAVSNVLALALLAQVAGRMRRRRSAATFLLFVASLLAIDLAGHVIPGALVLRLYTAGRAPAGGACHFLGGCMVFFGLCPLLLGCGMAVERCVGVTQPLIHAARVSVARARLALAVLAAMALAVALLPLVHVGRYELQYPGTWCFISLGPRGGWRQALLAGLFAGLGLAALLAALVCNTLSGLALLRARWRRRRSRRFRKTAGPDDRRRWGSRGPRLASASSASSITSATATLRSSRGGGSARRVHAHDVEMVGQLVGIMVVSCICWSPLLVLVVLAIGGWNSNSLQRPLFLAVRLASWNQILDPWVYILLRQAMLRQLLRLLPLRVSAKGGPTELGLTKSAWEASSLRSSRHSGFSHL
Kind of assay: Evaluated for its competitive binding affinity towards mouse Prostanoid EP1 receptor in CHO cells expressing prostanoid receptor. The format is cell-based.

Assay [5] concerns the target T1, Prostaglandin E2 receptor EP4 subtype. Kind of assay: Effective concentration which increases intracellular c-AMP production in mouse Prostanoid EP4 receptor. It is filed as functional, cell-based.
The target in assay [6] is T3, Prostaglandin E2 receptor EP3 subtype (Mus musculus, UniProt P30557).
T3 sequence (P30557 whole entry): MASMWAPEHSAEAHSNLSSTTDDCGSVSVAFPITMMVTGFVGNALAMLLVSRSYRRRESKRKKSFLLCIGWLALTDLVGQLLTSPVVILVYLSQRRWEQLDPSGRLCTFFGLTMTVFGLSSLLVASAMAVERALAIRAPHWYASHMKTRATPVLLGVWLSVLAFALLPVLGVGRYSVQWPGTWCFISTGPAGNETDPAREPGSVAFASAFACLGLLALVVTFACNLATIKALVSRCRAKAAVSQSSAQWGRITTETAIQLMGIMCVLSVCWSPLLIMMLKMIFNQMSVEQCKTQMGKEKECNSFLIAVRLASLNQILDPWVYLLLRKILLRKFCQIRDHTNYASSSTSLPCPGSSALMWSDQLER
Kind of assay: Evaluated for its competitive binding affinity towards mouse Prostanoid EP3 receptor in CHO cells expressing prostanoid receptor. It is filed as cell-based.

Assay [7] can be described thus: Selectivity ratio (Prostanoid EP3 receptor/Prostanoid EP4 receptor) was determined.

As usually defined, the pKi is −log10 of the Ki, conventionally taken in molar units. Higher therefore signals a small Ki. By pEC50 is commonly meant −log10 of the EC50, conventionally taken in molar units.

T1 sequence (P32240 whole entry): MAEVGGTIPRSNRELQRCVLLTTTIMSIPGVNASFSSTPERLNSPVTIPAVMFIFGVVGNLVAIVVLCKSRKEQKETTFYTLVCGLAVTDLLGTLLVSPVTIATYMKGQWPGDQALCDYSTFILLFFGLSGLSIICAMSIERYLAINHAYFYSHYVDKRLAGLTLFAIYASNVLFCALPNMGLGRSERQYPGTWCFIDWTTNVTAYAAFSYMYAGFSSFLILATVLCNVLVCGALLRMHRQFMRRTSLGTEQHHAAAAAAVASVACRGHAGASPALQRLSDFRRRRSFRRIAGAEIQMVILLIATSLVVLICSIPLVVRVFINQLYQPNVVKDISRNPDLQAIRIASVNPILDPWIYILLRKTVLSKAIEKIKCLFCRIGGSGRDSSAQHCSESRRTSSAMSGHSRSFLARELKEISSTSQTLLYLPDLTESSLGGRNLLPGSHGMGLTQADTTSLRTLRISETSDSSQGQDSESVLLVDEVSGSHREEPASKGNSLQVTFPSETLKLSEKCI
Chain of Prostacyclin receptor (P43119 whole entry): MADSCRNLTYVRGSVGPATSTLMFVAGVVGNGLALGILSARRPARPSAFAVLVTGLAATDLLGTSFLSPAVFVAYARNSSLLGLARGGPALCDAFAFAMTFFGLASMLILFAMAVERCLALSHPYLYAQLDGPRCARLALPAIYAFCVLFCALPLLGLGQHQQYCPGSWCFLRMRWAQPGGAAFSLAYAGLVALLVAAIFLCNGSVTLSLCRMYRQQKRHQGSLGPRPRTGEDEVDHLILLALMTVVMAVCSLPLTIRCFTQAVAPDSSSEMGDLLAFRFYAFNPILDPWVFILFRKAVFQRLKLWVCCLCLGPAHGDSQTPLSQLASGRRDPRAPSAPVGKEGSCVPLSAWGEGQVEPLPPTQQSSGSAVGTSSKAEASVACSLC
Chain of Prostaglandin E2 receptor EP2 subtype (Q62053 whole entry): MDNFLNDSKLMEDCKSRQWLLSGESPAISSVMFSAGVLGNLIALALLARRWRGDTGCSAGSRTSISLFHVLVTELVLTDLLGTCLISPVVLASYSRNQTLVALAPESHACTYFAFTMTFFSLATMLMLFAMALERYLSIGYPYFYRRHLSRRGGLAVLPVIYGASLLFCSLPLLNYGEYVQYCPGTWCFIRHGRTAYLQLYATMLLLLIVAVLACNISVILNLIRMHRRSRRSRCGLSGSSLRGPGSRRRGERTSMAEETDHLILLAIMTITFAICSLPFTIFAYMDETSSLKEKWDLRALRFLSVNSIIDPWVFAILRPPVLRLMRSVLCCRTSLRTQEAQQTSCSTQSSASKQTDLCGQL

As to `O=C(O)CSCCCS[C@H]1C(=O)C[C@@H](O)[C@@H]1/C=C/[C@@H](O)Cc1ccccc1`, the pKi is 8.15 in assay [1]; 5.41 in assay [2]; under 5.00 in assay [3]; 5.59 in assay [4]; 6.89 in assay [6]. Also, the pEC50 in assay [5] is 7.47.

Turning to `COCCCc1cccc(C[C@H](O)/C=C/[C@H]2[C@H](O)CC(=O)[C@@H]2SCCCSCC(=O)O)c1`, the pKi was 7.00 in assay [1]; under 5.00 in assay [2]; under 5.00 in assay [3]; under 5.00 in assay [4]; under 5.00 in assay [6]. In assay [5], this compound had a pEC50 of 7.36.

Regarding `COc1cccc(C[C@H](O)/C=C/[C@H]2[C@H](O)CC(=O)[C@@H]2SCCCSCC(=O)O)c1`, the pKi was 8.00 in assay [1]; under 5.00 in assay [2]; under 5.00 in assay [3]; under 5.00 in assay [4]; 6.29 in assay [6]. For the same compound, the Selectivity ratio in assay [7] was found to be 50. The pEC50 in assay [5] was 7.43.

Take `CCCCC[C@H](O)/C=C/[C@H]1[C@H](O)CC(=O)[C@@H]1CCCCCCC(=O)O` [ALPROSTADIL]: the pKi is 7.39 in assay [2] and 7.66 in assay [4]. Also, the pEC50 in assay [5] was 8.60.

For the compound `CCCC[C@H](C)C[C@H](O)/C=C/[C@H]1[C@H](O)CC(=O)[C@@H]1SCCCCCC(=O)O`, the pKi in assay [1] is 9.40; in assay [2], 7.85; in assay [3], 8.48; in assay [4], 7.96; in assay [6], 8.21.

Take `CCCCC[C@H](O)/C=C/[C@H]1[C@H](O)CC(=O)[C@@H]1SCCSCCC(=O)O`: the pKi in assay [1] was 8.49; in assay [2] it was 5.92; in assay [3], under 5.00; in assay [4], 6.21; in assay [6], 8.36. The pEC50 in assay [5] was 6.77.

For the compound `COc1ccc(C[C@H](O)/C=C/[C@H]2[C@H](O)CC(=O)[C@@H]2SCCCSCC(=O)O)cc1`, the pKi is 8.15 in assay [1]; 5.82 in assay [2]; under 5.00 in assay [3]; 5.51 in assay [4]; 6.66 in assay [6]. For the same compound, in assay [7], the Selectivity ratio is 50. In assay [5], this compound had a pEC50 of 7.49.

With `CCCOCc1cccc(C[C@H](O)/C=C/[C@H]2[C@H](O)CC(=O)[C@@H]2SCCCSCC(=O)O)c1`, the pKi in assay [1] is 8.28; in assay [2], 5.11; in assay [3], under 5.00; in assay [4], under 5.00; in assay [6], 5.52. Moreover, in assay [5], the pEC50 was 8.00.

Turning to `Cc1ccc(C[C@H](O)/C=C/[C@H]2[C@H](O)CC(=O)[C@@H]2SCCCSCC(=O)O)cc1`, the pKi in assay [1] is 8.14; in assay [2] it was 5.92; in assay [3] it was under 5.00; in assay [4], under 5.00; in assay [6], 7.14. This compound also showed a pEC50 in assay [5] of 6.57.

On to `CCOCc1cccc(C[C@H](O)/C=C/[C@H]2[C@H](O)CC(=O)[C@@H]2SCCCSCC(=O)O)c1`, for which the pKi in assay [1] is 8.03; in assay [2] it was under 5.00; in assay [3], under 5.00; in assay [4], under 5.00; in assay [6], 5.35. For the same compound, the Selectivity ratio in assay [7] turned out to be 450. In assay [5], this compound had a pEC50 of 8.60.

For `Cc1ccccc1C[C@H](O)/C=C/[C@H]1[C@H](O)CC(=O)[C@@H]1SCCCSCC(=O)O`, the pKi in assay [1] is 7.66; in assay [2] it was 5.60; in assay [3] it was under 5.00; in assay [4] it was under 5.00; in assay [6], 6.85. This compound also had a pEC50 in assay [5] of 6.38.

Consider `COCCc1cccc(C[C@H](O)/C=C/[C@H]2[C@H](O)CC(=O)[C@@H]2SCCCSCC(=O)O)c1`, for which the pKi in assay [1] was 8.07; in assay [2] it was 5.51; in assay [3] it was under 5.00; in assay [4], under 5.00; in assay [6] it was 5.52. In assay [5], this compound showed a pEC50 of 7.92.

In the case of `COCc1cccc(C[C@H](O)/C=C/[C@H]2[C@H](O)CC(=O)[C@@H]2SCCCSCC(=O)O)c1`, the pKi in assay [1] is 8.51; in assay [2], 5.68; in assay [3] it was under 5.00; in assay [4], under 5.00; in assay [6], 5.92. Moreover, in assay [7], the Selectivity ratio was determined as 120. Besides, the pEC50 in assay [5] was 8.51.

For the compound `CCCCC[C@H](O)/C=C/[C@H]1[C@H](O)CC(=O)[C@@H]1SCCCOCC(=O)O`, the pKi is 8.64 in assay [1]; 6.82 in assay [2]; 6.29 in assay [3]; 5.92 in assay [4]; 7.96 in assay [6]. Further, the pEC50 in assay [5] is 8.11.

With `COc1ccccc1C[C@H](O)/C=C/[C@H]1[C@H](O)CC(=O)[C@@H]1SCCCSCC(=O)O`, the pKi was 7.49 in assay [1]; 5.59 in assay [2]; under 5.00 in assay [3]; under 5.00 in assay [4]; 5.96 in assay [6]. Moreover, the Selectivity ratio in assay [7] was determined as 50. This compound also had a pEC50 in assay [5] of 6.24.

`Cc1cccc(C[C@H](O)/C=C/[C@H]2[C@H](O)CC(=O)[C@@H]2SCCCSCC(=O)O)c1`: the pKi in assay [1] is 8.72; in assay [2] it was 6.12; in assay [3] it was under 5.00; in assay [4], under 5.00; in assay [6] it was 7.00. Also, the pEC50 in assay [5] is 8.55.

Take `CSCc1cccc(C[C@H](O)/C=C/[C@H]2[C@H](O)CC(=O)[C@@H]2SCCCSCC(=O)O)c1`: the pKi in assay [1] was 8.22; in assay [2], 5.28; in assay [3] it was under 5.00; in assay [4] it was under 5.00; in assay [6] it was 6.37. Moreover, the Selectivity ratio in assay [7] amounted to 70. In assay [5], this compound showed a pEC50 of 8.32.

Consider `CCCCC[C@H](O)/C=C/[C@H]1[C@H](O)CC(=O)[C@@H]1CSCCSCC(=O)O`, for which the pKi in assay [1] is 7.55; in assay [2] it was 6.00; in assay [3], under 5.00; in assay [4], 7.30; in assay [6], 8.46. The compound further showed a pEC50 in assay [5] of 5.11.

Regarding `CCCCC[C@H](O)/C=C/[C@H]1[C@H](O)CC(=O)[C@@H]1SCCCSCC(=O)O`, the pKi was 9.15 in assay [1]; 6.55 in assay [2]; under 5.00 in assay [3]; 6.21 in assay [4]; 6.66 in assay [6]. Besides, the pEC50 in assay [5] is 8.37.

For `CCCCC[C@H](O)/C=C/[C@H]1[C@H](O)CC(=O)[C@@H]1SCCCCCC(=O)O`, the pKi was 9.15 in assay [1]; 7.00 in assay [2]; 6.06 in assay [3]; 6.92 in assay [4]; 8.35 in assay [6]. The compound further showed a pEC50 in assay [5] of 8.43.
